Consider two molecules from US6541509B2 (priority 2000, dated 2003).

Molecules are shown by their SMILES. Where two headings read alike, the source gives them in different places.

Data set [1] relates to A549-T12 cells. It is filed as cell-based, human. Particulars: for Reversal of the G2-M-phase block induced by Taxol removal: 48 h without Taxol, then 48 h with drug, discodermolide 0.001-24.0 nM, data not shown. As for the experimental part:
Cells were incubated with the different agents for 48 h, fixed, stained with propidium iodide, and analyzed by flow cytometry, as described below.
For the drug substitution experiments, A549-T12 cells were seeded at a density of 3×10^4 cells/mL in 75-cm^2 flasks, and treated with various drugs at the indicated concentrations (FIG. 5). After 48 h, both adherent and nonadherent cells were harvested, fixed in 70% ethanol for at least 20 min, permeabilized with 0.1% Triton X-100 in PBS for 3 min, and stained for 30 min at 37° C. with 10 μg/mL of propidium iodide (Sigma) in a PBS solution containing 1 μg/mL of RNase A (Boehringer Mannheim, Indianapolis, Ind.). Cell-cycle analysis was performed using the Becton Dickinson FACScan and the CellQuest program. […] The cells then were prepared as described above.

In data set [2] the test system is SKVLB. In words: cells. In kind it is cell-based, human. Particulars: for IC50: Homo sapiens, Ovarian carcinoma cell, 144 h, SKVLB, 6 days, mean ± SE, read-out: IC50 (drug concentration that inhibits cell division by 50%); for Fold resistance (ratio of IC50, SKVLB and SKOV3): after 6 days. The procedure: (§1) The drug-sensitive mouse macrophage-like cell line, J774.2, and its Taxol-resistant cell line, J7-T3-1.6, were maintained as previously described. […] Drug-sensitive and vinblastine-resistant human ovarian carcinoma cell lines, SKOV3 and SKVLB, were obtained from Dr. V. Ling, and were maintained as previously described. Both J7-T3-1.6 and SKVLB cells overexpress P-glycoprotein. SKVLB cells were grown in the presence of 1 μM vinblastine. The Taxol-resistant human non-small-cell lung carcinoma cell line, A549-T12, was derived from the drug-sensitive A549 cell line; both cell lines were maintained as previously described.
(§2) For the A549 cell lines, cells were seeded at a density of 1×10^4 cells/mL (A549) or 3×10^4 cells/mL (A549-T12), in triplicate, 6-well plates, and allowed to attach for 24 h. […] The SKOV3 and SKVLB cell lines were assayed in a similar manner. Cells were seeded in triplicate, at a density of 6×10^3 cells/mL (SKOV3) or 12×10^3 cells/mL (SKVLB), in 6-well plates, and incubated with a drug for 6 days. […] J774.2 and J7-T3-1.6 cells were plated at a density of 2×10^4 cells/well, in 96-well plates, and allowed to attach overnight. Serial dilutions of each drug were performed, and the cells were incubated for 72 h. The IC50 was determined using the CellTiter 96™ AQueous nonradioactive cell proliferation assay (Promega, Madison, Wis.), which correlates with the number of live cells. Different methods for determining IC50 values were used, depending on the most accurate method for each particular set of cell lines.

The test system of data set [3] is SKOV3. In words: cells. It is filed as cell-based, human. Particulars: SKOV3, 6 days, mean ± SE; for IC50: Homo sapiens, SK-OV-3, 144 h, read-out: IC50 (drug concentration that inhibits cell division by 50%). As for the experimental part: as §1, §2
The subject of data set [4] is A549. In words: cells. In kind it is cell-based, human. Particulars: A549, 72 h, mean ± SE; for IC50: Homo sapiens, read-out: IC50 (drug concentration that inhibits cell division by 50%). As for the experimental part:
as §1, §2

Data set [5] relates to A549-T12. Nature of the data set: cells. In kind it is cell-based, human. Conditions: for IC50: Homo sapiens, A549-T12, 72 h, cells maintained in 2 nM Taxol, mean ± SE, read-out: IC50 (drug concentration that inhibits cell division by 50%); for Fold resistance (ratio of IC50 A549-T12 to A549): 72 h. The procedure:
as §1, §2

Data set [6] concerns microtubules. In words: In vitro microtubule polymerization assay. It is filed as biochemical. Particulars: in the absence of GTP.
For data set [7], the system named is A549-T12 cells. Nature of the data set: Methylene blue growth assay. In kind it is cell-based, human. Conditions: 8 to 11 days. As for the experimental part: (§3) FIG. 2 illustrates that A549-T12 cells require Taxol for normal growth. A549 and A549-T12 cells were grown in the absence or presence of various concentrations of Taxol for 8 to 11 days. The cells were then stained with methylene blue, as described below.
(§4) Cells were seeded in 24-well plates at a density of 400 cells/well (A549) or 500 cells/well (A549-T12), and treated with different concentrations of Taxol. Following 8 to 11 days of growth, the medium was removed, and cells were stained with 0.5% methylene blue (Sigma) in 50% ethanol for 20 min, then rinsed with distilled water (FIG. 2).

Data set [8] deals with A549 cells. In words: Methylene blue growth assay. In kind it is cell-based, human. Conditions: 8 to 11 days. The procedure:
as §3, §4

In data set [9] the test system is A549-T12 cells. It is filed as cell-based, human. Particulars: 48 h; for Microtubule cytoskeleton / ability to substitute for Taxol: concentrations as in FIG. 4. The procedure: A549-T12 cells were grown on cover slips and treated with the different compounds for 48 h. Cells were then permeabilized, fixed, and incubated with an α-tubulin antibody, as described below.
A549-T12 cells, which were grown to subconfluency on glass cover slips in the absence of drug or in the presence of different drugs at varying concentrations (FIG. 4), were prepared for immunofluorescence microscopy as previously described, with the following modifications: (a) nonspecific binding was blocked using 10% normal goat serum in PBS for 30 min at 37° C.; (b) cells were incubated with a monoclonal antibody to α-tubulin (Sigma; 1:100 dilution; 5% normal goat serum in PBS), followed by a Cy3-conjugated anti-mouse IgG secondary antibody (Amersham, Arlington Heights, Ill.; 1:1000 dilution); and (c) slides were analyzed using the Zeiss Axioskop microscope (rhodamine filter) at 63× magnification.

In data set [10] the test system is J774.2. Nature of the data set: cells. It is filed as cell-based, mouse. Particulars: Mus musculus; J774.2, 72 h, mean ± SE; read-out: IC50 (drug concentration that inhibits cell division by 50%). As for the experimental part:
as §1, §2

Data set [11] deals with J7-T3-1.6. In words: cells. It is filed as cell-based, mouse. Particulars: for IC50: Mus musculus, J7-T3-1.6, 72 h, mean ± SE, read-out: IC50 (drug concentration that inhibits cell division by 50%); for Fold resistance (ratio of IC50 J7-T3-1.6 to J774.2): after 72 h. The procedure:
as §1, §2

For data set [12] the following is noted: literature [13], [16]; discodermolide value predicted; cited from earlier work.
In data set [13] the test system is A549-T12 cells. Nature of the data set: Drug combination assay (colorimetric proliferation assay), Taxol titrated with test drug. In kind it is cell-based, human. Conditions: 72 h. The procedure:
For the drug combination assay, the cells were analyzed after 72 h using a cell proliferation assay, as described below. A: cytotoxicity curves of A549-T12 cells in the absence of Taxol or in the presence of Taxol (in various concentrations), in combination with a range of discodermolide concentrations; B-D: cytotoxicity curves of A549-T12 cells in the absence or presence of 2 nM Taxol, in combination with eleutherobin or the epothilones. —⬭—: no Taxol; ---⬬----: 2 nM Taxol.
For the drug combination assay, A549-T12 cells were seeded in triplicate, at a density of 4×10^4 cells/mL, in 96-well plates, in the absence of Taxol or in the presence of various concentrations of Taxol, in combination with serial dilutions of each test drug. After a 72-h incubation, the plates were assayed using the colorimetric proliferation assay. In order to sustain the growth of A549-T12 cells in the absence of Taxol, cells were seeded at the higher densities described above.

The test system of data set [14] is P-glycoprotein. In words: Steady-state accumulation of [3H]Taxol. Conditions: Taxol-resistant murine cell line; data not shown. It is filed as cell-based.
Setting [15] is: 48 h, 2 nM Taxol, discodermolide 2 or 6 nM, other drugs as in FIG. 5.

On to `CC(=O)O[C@H]1C(=O)[C@@]2(C)[C@H]([C@H](OC(=O)c3ccccc3)[C@]3(O)C[C@H](OC(=O)[C@H](O)[C@@H](NC(=O)c4ccccc4)c4ccccc4)C(C)=C1C3(C)C)[C@]1(OC(C)=O)CO[C@@H]1C[C@@H]2O` [Taxol, paclitaxel], for which, in [1] (setting [15]), the Cell-cycle profile result was “normal cell-cycle profile”. Also, the “Reversal of the G2-M-phase block induced by Taxol removal” value in data set [1] is on record as “return of a normal cell-cycle profile”. Also, the IC50 turned out to be 13300 nM in [2]; 2 ± 0.1 nM in [3]; 2 ± 0.14 nM in data set [4]; 18.7 ± 0.9 nM in data set [5]; 67 ± 7 nM in data set [10]; 18000 nM in data set [11]. Further, the “Fold resistance (ratio of IC50, SKVLB and SKOV3)” value in data set [2] is 6,666.5 fold. Further, in data set [3], the “IC50 (drug concentration that inhibits cell division by 50%)” value is “decreased but similar responses”. Also, the Assembly of microtubules result in [6] is given as “enhanced the assembly of stable microtubules”. The results for the Cell growth result in data set [7] (6 nM Taxol), in data set [8] (6 nM Taxol) and in [8] (subnanomolar concentrations of Taxol) were “grew normally”, “cytotoxic” and “unaffected”, respectively. In [7], the “Taxol level required by the cell line for normal growth” value was in the range of 2 to 6 nM. Besides, in data set [9], the “Microtubule cytoskeleton / ability to substitute for Taxol” value is given as “normal microtubule cytoskeleton”. The “Fold resistance (ratio of IC50 J7-T3-1.6 to J774.2)” value in [11] was determined as 268.7 fold.
As to `C=C/C=C\[C@H](C)[C@H](OC(N)=O)[C@@H](C)[C@H](O)[C@@H](C)C/C(C)=C\[C@H](C)[C@@H](O)[C@@H](C)/C=C\[C@@H](O)C[C@@H]1OC(=O)[C@H](C)[C@@H](O)[C@H]1C` [Disco, discodermolide], the Cell-cycle profile result in data set [1] (setting [15]) is given as “did not prevent the development of a G2-M-phase block”; in data set [1] (discodermolide 0.001-1.0 nM), “G2-M-phase block”; in data set [1] (discodermolide 12-24 nM), “substantial increase in the hypodiploid population”. The “Reversal of the G2-M-phase block induced by Taxol removal” value in data set [1] is recorded as “irreversible”. For the same molecule, the IC50 in [2] was 575 ± 233 nM; in data set [3], 9.7 ± 0.3 nM; in data set [4], 8.1 ± 0.14 nM; in data set [5] it was 6.5 ± 2.4 nM; in data set [10], 36 ± 5.5 nM; in [11], 1050 nM. The “Fold resistance (ratio of IC50, SKVLB and SKOV3)” value is listed as 59.3 fold in data set [2] and “low-level cross-resistance” in data set [2] (listed as discodermolide). Also, the “IC50 (drug concentration that inhibits cell division by 50%)” value in data set [3] is reported as “decreased but similar responses”; in data set [4], “comparable activities”. Besides, the entries for the “Fold resistance (ratio of IC50 A549-T12 to A549)” value in data set [5] and in data set [5] (listed as discodermolide) were 0.8 fold and “no cross-resistance”, respectively. Further, the Assembly of microtubules entry in data set [6] is given as “enhanced the assembly of stable microtubules”. For the same molecule, the “Solubility relative to Taxol” value in data set [12] is on record as 100 times more soluble than Taxol. Also, the “Concentration at which microtubules became arranged in bundle-like formations at the periphery of the cell” value in data set [9] is ≥ 12 nM. The “Microtubule cytoskeleton / ability to substitute for Taxol” value in data set [9] is reported as “Neither discodermolide nor vinblastine was able to substitute for Taxol”. Besides, the “Taxol concentration at which the potency of discodermolide was maximal” value in [13] (Taxol titrated with a range of discodermolide concentrations) stood at 2 nM. The “Loss of sensitivity of A549-T12 cells to the drug in the absence of 2 nM Taxol” value in data set [13] (absence vs presence of 2 nM Taxol) amounted to 20 fold. In addition, the “Substrate for P-glycoprotein” value in data set [14] was “not substrates for P-glycoprotein”. The “Fold resistance (ratio of IC50 J7-T3-1.6 to J774.2)” value in data set [11] is given as 29.2 fold; in data set [11] (listed as discodermolide), “low resistance”.
